Reference: US20230024302A1, “2,3,5-TRISUBSTITUTED PYRAZOLO[1,5-A]PYRIMIDINE COMPOUNDS” (Arcus Biosciences, Inc., priority 2019, published 2023)
Where two headings read alike, the source gives them in different places.

What was measured:
PI3Kγ = biological target: T1, PI3Kγ (Homo sapiens, UniProt P48736); test: PI3Kγ cellular assay in THP-1 cells (AKT pS473 AlphaLISA); type: cell-based
T1 construct: host or cells: THP-1
Summary of the method: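 Endogenous AKT S473 phosphorylation, detected by AlphaLISA in lysates, serves as the PI3Kγ activity read-out in stimulated, serum-starved THP-1 cells (1.8×10^5/well).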

PI3Kγ (p120γ) = biological target: T2, PI3Kγ (p120γ) (Homo sapiens, UniProt P48736); test: Inhibition of PI3K kinase activity (ADP Glo), PI3Kγ; conditions: read-out: biochemical potency (PI3Kγ IC50)
T2 construct: purchased Promega V1761
T2 sequence (P48736 whole entry): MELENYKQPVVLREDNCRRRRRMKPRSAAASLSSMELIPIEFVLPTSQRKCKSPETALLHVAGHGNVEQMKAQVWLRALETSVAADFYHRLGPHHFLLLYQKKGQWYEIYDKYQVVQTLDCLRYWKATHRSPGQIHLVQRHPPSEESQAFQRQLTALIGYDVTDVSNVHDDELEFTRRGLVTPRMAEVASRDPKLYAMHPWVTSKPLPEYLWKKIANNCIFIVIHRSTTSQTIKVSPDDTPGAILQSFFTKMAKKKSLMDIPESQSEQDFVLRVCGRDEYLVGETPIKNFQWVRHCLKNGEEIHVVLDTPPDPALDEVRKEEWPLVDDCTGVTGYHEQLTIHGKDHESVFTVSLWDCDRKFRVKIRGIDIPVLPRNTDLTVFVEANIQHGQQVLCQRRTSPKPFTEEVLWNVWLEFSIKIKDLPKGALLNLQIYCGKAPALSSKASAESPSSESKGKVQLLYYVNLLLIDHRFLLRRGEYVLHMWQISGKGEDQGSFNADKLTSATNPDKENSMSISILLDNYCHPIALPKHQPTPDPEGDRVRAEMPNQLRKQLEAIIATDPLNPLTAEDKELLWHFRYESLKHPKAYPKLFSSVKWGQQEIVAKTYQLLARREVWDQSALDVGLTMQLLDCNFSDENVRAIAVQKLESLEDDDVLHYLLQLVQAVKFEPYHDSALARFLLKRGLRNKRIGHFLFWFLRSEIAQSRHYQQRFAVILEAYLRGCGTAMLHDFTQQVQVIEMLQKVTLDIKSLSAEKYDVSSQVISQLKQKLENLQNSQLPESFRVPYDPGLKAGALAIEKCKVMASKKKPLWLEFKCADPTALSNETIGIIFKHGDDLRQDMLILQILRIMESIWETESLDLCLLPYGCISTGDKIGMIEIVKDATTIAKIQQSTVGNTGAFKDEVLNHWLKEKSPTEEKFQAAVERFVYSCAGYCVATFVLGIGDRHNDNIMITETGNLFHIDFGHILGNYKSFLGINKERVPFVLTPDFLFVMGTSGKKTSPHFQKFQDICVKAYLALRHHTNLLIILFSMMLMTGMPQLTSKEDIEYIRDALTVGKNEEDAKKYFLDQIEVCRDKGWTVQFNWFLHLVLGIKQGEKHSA
Summary of the method: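 IC50 values come from a 4-parameter nonlinear fit of ADP-Glo luminescence, which measures ADP produced as PIP2 is phosphorylated to PIP3. The p120γ enzyme (2× stock 8 nM) sat with compound 1 h at rt before substrate (2× stocks: 50 μM ATP, 0.1 mg/ml PIP2) was added. Phosphorylation then proceeded 60 min at rt.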

[1] = Table 2, rhMCP-1 stimulated AKT pS473, read-out: cellular potency (PI3Kγ IC50)
[2] = Table 6, rhMCP-1 stimulated AKT pS473, read-out: cellular potency (PI3Kγ IC50)
[3] = AKT pS473, read-out: cellular potency (PI3Kγ IC50)
[4] = Table 1, rhMCP-1 stimulated AKT pS473, read-out: cellular potency (PI3Kγ IC50)

T1 sequence (P48736 whole entry): as above

For `Cc1cc(-c2ccn3nc(N)c(C(=O)NC(C)(C)CO)c3n2)cc2c1C(=O)N([C@@H](C)C1CC1)C2` [Example 223], the IC50 (PI3Kγ; [1]) was 100 to 1000 nM and the IC50 (PI3Kγ (p120γ); Table 2, p120γ) was under 100 nM.
`C[C@@H](C1CC1)N1Cc2cc(-c3ccn4nc(N)c(C(=O)Nc5cnccc5N)c4n3)cc(OC(F)(F)F)c2C1=O` [Example 422] showed an IC50 (PI3Kγ; [2]) of 100 to 1000 nM and an IC50 (PI3Kγ (p120γ); Table 6, p120γ) of under 100 nM.
`C[C@@H](C1CC1)N1Cc2cc(-c3ccn4nc(N)c(C(=O)Nc5ccc(Cl)cc5)c4n3)cc(NS(C)(=O)=O)c2C1=O` [Example 392] showed an IC50 (PI3Kγ; [3]) of over 1000 nM and an IC50 (PI3Kγ (p120γ)) of under 100 nM.
`C[C@@H](C1CC1)N1Cc2cc(-c3ccn4nc(N)c(C(=O)N[C@@H](CO)C5CC5)c4n3)cc(C3CC3)c2C1=O` [Example 167, 2-Amino-5-{7-cyclopropyl-2-[(1S)-1-cyclopropylethyl]-1-oxo-2,3-dihydro-1H-isoindol-5-yl}-N-[(1R)-1-cyclopropyl-2-hydroxyethyl]pyrazolo[1,5-a]pyrimidine-3-carboxamide] was tested, and the IC50 (PI3Kγ; [4]) was under 100 nM and the IC50 (PI3Kγ (p120γ); Table 1, p120γ) was under 100 nM.
`Cc1cc(-c2ccn3nc(N)c(C(=O)NCCC#N)c3n2)cc2c1C(=O)N([C@@H](C)C1CC1)C2` [Example 260] was tested, and the IC50 (PI3Kγ; [1]) was 100 to 1000 nM and the IC50 (PI3Kγ (p120γ); Table 2, p120γ) was under 100 nM.
Work on `Cc1cc(-c2ccn3nc(N)c(C(=O)NC[C@H]4CNC(=O)C4)c3n2)cc2c1C(=O)N([C@@H](C)C1CC1)C2` [Example 276] yielded an IC50 (PI3Kγ; [1]) of 100 to 1000 nM and an IC50 (PI3Kγ (p120γ); Table 2, p120γ) of under 100 nM.
`C[C@@H](C1CC1)N1Cc2cc(-c3ccn4nc(N)c(C(=O)N[C@@H]5CCCC[C@H]5O)c4n3)cc(NS(C)(=O)=O)c2C1=O` [Example 384] was tested, and the IC50 (PI3Kγ; [3]) was 100 to 1000 nM and the IC50 (PI3Kγ (p120γ)) was under 100 nM.
Molecule `Cc1cc(-c2ccn3nc(N)c(C(=O)NC4(C(N)=O)CC4)c3n2)cc2c1C(=O)N([C@@H](C)C1CC1)C2` [Example 247] has an IC50 (PI3Kγ; [1]) of 100 to 1000 nM and an IC50 (PI3Kγ (p120γ); Table 2, p120γ) of under 100 nM.
Molecule `Cc1cc(-c2ccn3nc(N)c(C(=O)N[C@H]4Cc5ccccc5[C@@H]4O)c3n2)cc2c1C(=O)N([C@@H](C)C1CC1)C2` [Example 265] has an IC50 (PI3Kγ; [1]) of over 1000 nM and an IC50 (PI3Kγ (p120γ); Table 2, p120γ) of under 100 nM.
`C[C@@H](C1CC1)N1Cc2cc(-c3ccn4nc(N)c(C(=O)N[C@@H]5CC[C@@H](O)C5)c4n3)cc(NS(C)(=O)=O)c2C1=O` [Example 86, 2-Amino-5-{2-[(1S)-1-cyclopropylethyl]-7-methanesulfonamido-1-oxo-2,3-dihydro-1H-isoindol-5-yl}-N-[(1R,3R)-3-hydroxycyclopentyl]pyrazolo[1,5-a]pyrimidine-3-carboxamide] showed an IC50 (PI3Kγ; [4]) of under 100 nM and an IC50 (PI3Kγ (p120γ); Table 1, p120γ) of under 100 nM.
For `Cc1cc(-c2ccn3nc(N)c(C(=O)NC4CC4)c3n2)cc2c1C(=O)N([C@@H](C1CC1)C(F)(F)F)C2` [Example 301], the IC50 (PI3Kγ; [1]) was 100 to 1000 nM and the IC50 (PI3Kγ (p120γ); Table 2, p120γ) was under 100 nM.
Work on `CC(CO)NC(=O)c1c(N)nn2ccc(-c3cc(F)c4c(c3)CN([C@@H](C)C3CC3)C4=O)nc12` (some centres unmarked) [Example 369] yielded an IC50 (PI3Kγ; [3]) of 100 to 1000 nM and an IC50 (PI3Kγ (p120γ)) of under 100 nM.
`C[C@@H](C1CC1)N1Cc2cc(-c3ccn4nc(N)c(C(=O)NC5CC5)c4n3)cc(OC(F)(F)F)c2C1=O` [Example 20, 2-Amino-N-cyclopropyl-5-{2-[(1S)-1-cyclopropylethyl]-1-oxo-7-(trifluoromethoxy)-2,3-dihydro-1H-isoindol-5-yl}pyrazolo[1,5-a]pyrimidine-3-carboxamide] gave an IC50 (PI3Kγ; [4]) of under 100 nM and an IC50 (PI3Kγ (p120γ); Table 1, p120γ) of under 100 nM.
With `C[C@@H](C1CC1)N1Cc2cc(-c3ccn4nc(N)c(C(=O)NC5COC5)c4n3)cc(NS(C)(=O)=O)c2C1=O` [Example 78, 2-Amino-5-{2-[(1S)-1-cyclopropylethyl]-7-methanesulfonamido-1-oxo-2,3-dihydro-1H-isoindol-5-yl}-N-(oxetan-3-yl)pyrazolo[1,5-a]pyrimidine-3-carboxamide] the IC50 (PI3Kγ; [4]) was under 100 nM and the IC50 (PI3Kγ (p120γ); Table 1, p120γ) was under 100 nM.
For `Cc1cc(-c2ccn3nc(N)c(C(=O)NC4(C)COC4)c3n2)cc2c1C(=O)N(CC(C)(C)O)C2` [Example 318], the IC50 (PI3Kγ; [1]) was 100 to 1000 nM and the IC50 (PI3Kγ (p120γ); Table 2, p120γ) was under 100 nM.
Work on `C[C@@H](C1CC1)N1Cc2cc(-c3ccn4nc(N)c(C(=O)N[C@H]5CC[C@H](C(=O)O)CC5)c4n3)cc(OC(F)(F)F)c2C1=O` [Example 411] yielded an IC50 (PI3Kγ; [2]) of 100 to 1000 nM and an IC50 (PI3Kγ (p120γ); Table 6, p120γ) of under 100 nM.
